Measurements from paper PMC3433420 (PLoS ONE, 2012).
Residues, ends and D or L forms follow the SMILES beside them.

How the values were obtained:
Test in all cases: In-house protein microarrays (with or without 5 mM DTT), protein named per line
Assay type in all cases: binding
SH2 and PTB domains [1] = biological target: T1, SH2 and PTB domains (Homo sapiens, UniProt P43403)
T1 construct: thioredoxin; made in house; host or cells: BL21(DE3)pLysS E. coli
T1 sequence (P43403 1-619): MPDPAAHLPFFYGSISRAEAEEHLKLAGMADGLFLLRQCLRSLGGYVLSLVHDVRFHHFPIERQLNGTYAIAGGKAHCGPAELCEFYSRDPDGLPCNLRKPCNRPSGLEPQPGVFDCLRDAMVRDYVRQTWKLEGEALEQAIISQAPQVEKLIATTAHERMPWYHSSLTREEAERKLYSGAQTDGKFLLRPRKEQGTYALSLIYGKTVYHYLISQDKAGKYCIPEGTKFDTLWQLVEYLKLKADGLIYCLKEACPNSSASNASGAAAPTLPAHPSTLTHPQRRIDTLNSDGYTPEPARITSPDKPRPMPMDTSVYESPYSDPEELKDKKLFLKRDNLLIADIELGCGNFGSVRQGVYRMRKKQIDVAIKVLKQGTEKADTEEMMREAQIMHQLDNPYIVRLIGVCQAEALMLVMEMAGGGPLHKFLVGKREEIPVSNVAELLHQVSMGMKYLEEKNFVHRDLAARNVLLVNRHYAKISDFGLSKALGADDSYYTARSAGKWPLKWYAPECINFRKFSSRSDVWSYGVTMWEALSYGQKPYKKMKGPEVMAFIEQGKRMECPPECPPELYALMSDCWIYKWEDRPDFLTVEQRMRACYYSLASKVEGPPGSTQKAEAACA
In short: (§1)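 Recombinant domains (~40 µM) spotted in duplicate on aldehyde slides, quenched 1 h at room temperature in HEPES/KCl/Tween-20 buffer pH 7.8 with 5 mM DTT and 1% BSA, then probed with rhodamine-labeled peptide. Thioredoxin-subtracted mean fluorescence fitted for KD.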

SH2 and PTB domains [2] = biological target: T2, SH2 and PTB domains (Homo sapiens, UniProt P51813); conditions: protein BMX
T2 construct: thioredoxin; made in house; host or cells: BL21(DE3)pLysS E. coli
T2 sequence (P51813 1-675): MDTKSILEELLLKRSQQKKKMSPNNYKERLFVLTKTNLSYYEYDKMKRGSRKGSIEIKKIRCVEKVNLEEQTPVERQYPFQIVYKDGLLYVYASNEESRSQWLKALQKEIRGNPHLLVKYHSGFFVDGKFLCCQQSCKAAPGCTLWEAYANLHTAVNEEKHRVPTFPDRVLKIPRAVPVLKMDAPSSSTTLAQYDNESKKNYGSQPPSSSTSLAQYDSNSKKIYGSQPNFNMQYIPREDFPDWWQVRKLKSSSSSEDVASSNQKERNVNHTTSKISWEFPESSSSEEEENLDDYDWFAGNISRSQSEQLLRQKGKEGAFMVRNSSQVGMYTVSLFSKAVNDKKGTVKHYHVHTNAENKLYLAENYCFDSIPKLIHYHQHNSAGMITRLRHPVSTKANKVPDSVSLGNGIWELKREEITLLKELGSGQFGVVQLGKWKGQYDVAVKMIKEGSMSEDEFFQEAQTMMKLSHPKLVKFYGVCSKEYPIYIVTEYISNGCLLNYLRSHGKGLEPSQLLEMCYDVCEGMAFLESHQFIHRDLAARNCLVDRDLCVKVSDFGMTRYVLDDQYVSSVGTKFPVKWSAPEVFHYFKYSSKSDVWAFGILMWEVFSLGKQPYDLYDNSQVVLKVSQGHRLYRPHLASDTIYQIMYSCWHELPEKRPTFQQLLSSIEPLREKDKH
In short: as §1

SH2 and PTB domains [3] = biological target: T3, SH2 and PTB domains (Homo sapiens, UniProt P78314); conditions: protein SH3BP2
T3 construct: thioredoxin; made in house; host or cells: BL21(DE3)pLysS E. coli
T3 sequence (P78314 1-561): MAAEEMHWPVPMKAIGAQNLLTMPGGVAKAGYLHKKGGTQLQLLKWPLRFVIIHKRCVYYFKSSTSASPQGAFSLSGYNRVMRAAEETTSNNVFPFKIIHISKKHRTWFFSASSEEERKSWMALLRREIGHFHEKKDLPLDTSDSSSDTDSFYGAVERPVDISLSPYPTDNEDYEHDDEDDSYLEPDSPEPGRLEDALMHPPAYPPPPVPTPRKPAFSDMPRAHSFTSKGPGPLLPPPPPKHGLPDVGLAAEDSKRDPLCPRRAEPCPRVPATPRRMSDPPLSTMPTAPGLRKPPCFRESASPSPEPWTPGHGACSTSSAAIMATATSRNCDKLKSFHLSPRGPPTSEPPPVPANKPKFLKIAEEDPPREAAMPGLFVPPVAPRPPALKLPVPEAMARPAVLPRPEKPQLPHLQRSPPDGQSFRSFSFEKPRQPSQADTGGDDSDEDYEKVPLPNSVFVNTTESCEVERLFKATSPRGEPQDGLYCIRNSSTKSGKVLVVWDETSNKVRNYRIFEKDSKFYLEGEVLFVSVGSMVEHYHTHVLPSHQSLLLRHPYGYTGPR
In short: as §1

SH2 and PTB domains [4] = biological target: T4, SH2 and PTB domains (Homo sapiens, UniProt Q96JZ2); conditions: protein HSH2D; PM assay replicate # 39307; array fabrication # 39286
T4 construct: thioredoxin; made in house; host or cells: BL21(DE3)pLysS E. coli
T4 sequence (Q96JZ2 whole entry, the tested form may be a part): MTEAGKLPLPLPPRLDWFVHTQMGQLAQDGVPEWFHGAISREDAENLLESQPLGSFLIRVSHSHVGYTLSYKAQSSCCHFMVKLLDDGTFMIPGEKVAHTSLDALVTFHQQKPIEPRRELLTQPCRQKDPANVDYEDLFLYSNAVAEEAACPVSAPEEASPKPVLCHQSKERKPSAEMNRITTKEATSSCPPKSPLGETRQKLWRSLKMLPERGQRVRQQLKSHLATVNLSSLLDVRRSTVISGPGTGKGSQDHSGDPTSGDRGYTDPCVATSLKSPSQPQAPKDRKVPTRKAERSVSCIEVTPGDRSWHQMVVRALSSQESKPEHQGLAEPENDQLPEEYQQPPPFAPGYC
In short: as §1

[5] = PM assay replicate # 39337, array fabrication # 39329
[6] = PM assay replicate # 39307, array fabrication # 39286
[7] = PM assay replicate # 39351, array fabrication # 39336
[8] = PM assay replicate # 39352, array fabrication # 39336

With `CC(C)C[C@H](NC(=O)[C@@H]1CCCN1C(=O)[C@H](C)NC(=O)[C@@H](NC(=O)[C@H](Cc1ccc(OP(=O)(O)O)cc1)NC(=O)CNC(=O)[C@H](CC(=O)O)NC(=O)[C@@H](NC(=O)[C@@H](N)CCC(=O)O)[C@@H](C)O)C(C)C)C(=O)N[C@H](C(=O)N[C@@H](CS)C(=O)N[C@@H](CO)C(=O)N[C@@H](CC(=O)O)C(=O)O)[C@@H](C)O` [ErbB2 pY1127] the “Kd” value (SH2 and PTB domains [1]; protein ZAP70-NC, PM assay replicate # 39336, array fabrication # 39329) was 2.41 µM, the “Kd” value (SH2 and PTB domains [1]; protein ZAP70-NC, PM assay replicate # 39337, array fabrication # 39329) was 2.01 µM and the “Kd” value (SH2 and PTB domains [2]; PM assay replicate # 39336, array fabrication # 39329) was 1.60 µM. The “Kd” value (SH2 and PTB domains [2]; [5]) was 5.39 µM.

For `CCN(CC)c1ccc2c(-c3ccc(C(=O)N[C@@H](CC(N)=O)C(=O)NCC(=O)N4CCC[C@H]4C(=O)N4CCC[C@H]4C(=O)N[C@@H](CCCCN)C(=O)N[C@@H](C)C(=O)N[C@@H](CCC(=O)O)C(=O)N[C@@H](CC(=O)O)C(=O)N[C@@H](CCC(=O)O)C(=O)N[C@@H](Cc4ccc(OP(=O)(O)O)cc4)C(=O)N[C@H](C(=O)N[C@@H](CC(N)=O)C(=O)N[C@@H](CCC(=O)O)C(=O)N4CCC[C@H]4C(=O)N[C@@H](CC(C)C)C(=O)N[C@@H](Cc4ccc(O)cc4)C(=O)N[C@@H](CC(C)C)C(=O)N[C@@H](CC(=O)O)C(=O)O)C(C)C)cc3C(=O)[O-])c3ccc(=[N+](CC)CC)cc-3oc2c1` [ErbB4 1202 (18-mer)] (HELM PEPTIDE1{[CCN(CC)c1ccc2c(-c3ccc(C(=O)[*:2])cc3C(=O)[O-])c3ccc(=[N+](CC)CC)cc-3oc2c1].N.G.P.P.K.A.E.D.E.[O=C([C@H](Cc1ccc(OP(=O)(O)O)cc1)N[*:1])[*:2]].V.N.E.P.L.Y.L.D}$$$$V2.0), the “Kd” value (SH2 and PTB domains [3]; [6]) was 0.50 µM, the “Kd” value (SH2 and PTB domains [3]; [5]) was 2.06 µM and the “Kd” value (SH2 and PTB domains [3]; [7]) was 1.61 µM. The “Kd” value (SH2 and PTB domains [3]; [8]) was 15.93 µM and the “Kd” value (SH2 and PTB domains [4]) was 0.97 µM.

`CC[C@H](C)[C@H](NC(=O)[C@H](CC(N)=O)NC(=O)[C@H](CC(N)=O)NC(=O)[C@H](CCCCN)NC(=O)[C@H](CC(C)C)NC(=O)[C@H](Cc1ccc(OP(=O)(O)O)cc1)NC(=O)[C@H](CCC(=O)O)NC(=O)[C@H](C)NC(=O)[C@H](CCCCN)NC(=O)CNC(=O)[C@H](CC(C)C)NC(=O)[C@@H](NC(=O)[C@H](CC(N)=O)NC(=O)[C@H](C)NC(=O)[C@@H](N)Cc1ccccc1)[C@@H](C)O)C(=O)N[C@@H](CC(C)C)C(=O)N[C@@H](CO)C(=O)N[C@@H](CC(=O)O)C(=O)O` [ErbB4 pY1221 (18-mer)] (HELM PEPTIDE1{F.A.N.T.L.G.K.A.E.[O=C([C@H](Cc1ccc(OP(=O)(O)O)cc1)N[*:1])[*:2]].L.K.N.N.I.L.S.D}$$$$V2.0) was tested, and the “Kd” value (SH2 and PTB domains [1]; protein ZAP70-C, PM assay replicate # 39352, array fabrication # 39336) was 0.79 µM, the “Kd” value (SH2 and PTB domains [2]; [6]) was 0.42 µM and the “Kd” value (SH2 and PTB domains [3]; [6]) was 1.24 µM. For the same molecule, the “Kd” value (SH2 and PTB domains [3]; [7]) was 2.36 µM, the “Kd” value (SH2 and PTB domains [3]; [8]) was 10.86 µM and the “Kd” value (SH2 and PTB domains [4]) was 0.99 µM.
